Test results from US20240300958A1, “COMPOUNDS AND THE USES AND PHARMACEUTICAL COMPOSITIONS THEREOF” (BEIJING YOUZHUJU NETWORK TECHNOLOGY CO. LTD., priority 2023, published 2024).

What was measured:
[1] = test system: α-smooth muscle actin (α-SMA) expression; test: Inhibition of DDR1-mediated lung fibrosis (α-SMA expression) in hTGFβ1-stimulated MRC-5 cells (western blot); format: cell-based, Human; details: for Ratio of α-SMA to GAPDH / α-SMA signal: hTGFβ1 2.5 ng/ml
Protocol: Human embryonic lung fibroblast MRC-5 cells were inoculated in a 6-well plate and incubated overnight at 37° C. and 5% CO2. 2 μL of compound C1 (gradient concentration in DMSO solution) was added to a cell plate with prepared cells, and was incubated overnight at 37° C. and 5% CO2. hTGFβ1 (which can stimulate DDR1-mediated lung fibrosis manifested by up-regulation of α-smooth muscle actin (α-SMA) expression) was added to the cell plate and incubated at 37° C. and 5% CO2 for 2 hours. Harvest of cell lysates: culture medium was aspirated as much as possible at the end of the culture until the wells were almost dry. 200 μL of ice-cold lysis buffer was added. Lysate was collected into a 1.5 mL eppendorf tube through scraping. Brief vortex was followed by spinning at 12000 rpm for 15 minutes in a refrigerated centrifuge. 5× protein electrophoresis loading buffer was added and then the sample was boiled. The sample supernatant was added to a SDS-PAGE gel, followed by electrophoresis, electrotransfer, blocking, primary antibody (anti-α-SMA antibody and anti-GAPDH antibody) incubation, washing, secondary antibody incubation, washing, and fluorescence development.

DDR1 = DDR1 (Homo sapiens (Human), UniProt Q08345); test: DDR1 kinase inhibition assay (FAM-labeled peptide), IC50; format: biochemical
DDR1, sequence (Q08345 other isoform, or with tags, fused parts or gaps isoform Q08345-2): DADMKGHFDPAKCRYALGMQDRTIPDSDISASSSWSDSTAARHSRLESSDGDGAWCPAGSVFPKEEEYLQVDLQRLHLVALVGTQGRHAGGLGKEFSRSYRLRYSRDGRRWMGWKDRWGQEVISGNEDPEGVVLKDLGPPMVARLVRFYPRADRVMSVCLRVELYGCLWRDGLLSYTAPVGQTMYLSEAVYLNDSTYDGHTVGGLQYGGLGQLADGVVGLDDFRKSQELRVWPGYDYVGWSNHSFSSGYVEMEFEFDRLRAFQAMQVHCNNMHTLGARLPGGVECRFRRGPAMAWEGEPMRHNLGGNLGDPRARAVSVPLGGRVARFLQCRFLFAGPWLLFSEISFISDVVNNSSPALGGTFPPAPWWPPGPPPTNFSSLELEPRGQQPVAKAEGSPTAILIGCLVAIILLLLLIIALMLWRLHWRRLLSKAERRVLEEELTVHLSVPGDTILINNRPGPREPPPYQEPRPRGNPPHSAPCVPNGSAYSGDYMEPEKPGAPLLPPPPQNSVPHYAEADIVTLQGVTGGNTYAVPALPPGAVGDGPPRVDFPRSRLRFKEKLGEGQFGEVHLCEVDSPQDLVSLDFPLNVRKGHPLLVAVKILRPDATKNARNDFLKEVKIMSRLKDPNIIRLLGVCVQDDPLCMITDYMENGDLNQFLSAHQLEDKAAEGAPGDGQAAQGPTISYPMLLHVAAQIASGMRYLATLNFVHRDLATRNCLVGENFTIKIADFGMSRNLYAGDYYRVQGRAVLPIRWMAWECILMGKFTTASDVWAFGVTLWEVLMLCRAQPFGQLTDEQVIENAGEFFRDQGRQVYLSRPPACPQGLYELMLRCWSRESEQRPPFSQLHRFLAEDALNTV
Protocol: 1× kinase base buffer (50 mM HEPES, pH 7.5, 0.0015% Brij-35) and a stop buffer (100 mM HEPES, pH 7.5, 0.015% Brij-35, 0.2% Coating Reagent #3, 50 mM EDTA) were prepared for testing kinases.
The compounds were diluted with 100% DMSO to 100 times the highest final inhibitor concentration required in the reaction. 100 μl of dilution of the compound was transferred to wells of a 96-well plate. For example, 100000 nM solution of the compound in DMSO was prepared in this step in case that an inhibitor concentration of 1000 nM is required. 100 μl of 100% DMSO was added to two empty wells of a 96-well plate for no compound control and no enzyme control. This plate was labeled as the source plate. A new 96-well plate with 5 μl of compound transferred from the source plate is used as an intermediate plate. 95 μl of 1× kinase buffer was added to each well of the intermediate plate. The compounds in the intermediate plate was mixed on a shaker for 10 minutes.
5 μl of sample in each well from the 96-well intermediate plate was transferred to the 384-well plate in duplicate. For example, well A1 of the 96-well plate was transferred to wells A2 and A1 of the 384-well plate, and well A2 of the 96-well plate was transferred to wells A3 and A4 of the 384-well plate, and so forth. 2.5× enzyme solution was prepared: 1× kinase basal buffer with added kinase. 2.5× peptide solution was prepared: 1× kinase basal buffer with added FAM-labeled peptide and ATP. To an assay plate already contained 5 μl of 10% dimethyl sulfoxide compound, 2.5× enzyme solution was transferred, and each well of the 384-well assay plate was added 10 μl of 2.5× enzyme solution. After incubation at room temperature for 10 minutes, 2.5× peptide solution was transferred to the assay plate. Each well of the 384-well assay plate was added 10 μl of 2.5× peptide solution. Kinase reaction and termination: incubation at 28° C. for a specified period followed by the addition of 25 μl stop buffer to stop the reaction. The data was read and collected.

[2] = biological target: phosphorylated DDR1 (p-DDR1) (Homo sapiens (Human), UniProt Q08345); test: Inhibition of phosphorylated DDR1 (p-DDR1) in T47D cells stimulated with rat tail collagen (western blot); format: cell-based
phosphorylated DDR1 (p-DDR1), sequence (Q08345 19-913): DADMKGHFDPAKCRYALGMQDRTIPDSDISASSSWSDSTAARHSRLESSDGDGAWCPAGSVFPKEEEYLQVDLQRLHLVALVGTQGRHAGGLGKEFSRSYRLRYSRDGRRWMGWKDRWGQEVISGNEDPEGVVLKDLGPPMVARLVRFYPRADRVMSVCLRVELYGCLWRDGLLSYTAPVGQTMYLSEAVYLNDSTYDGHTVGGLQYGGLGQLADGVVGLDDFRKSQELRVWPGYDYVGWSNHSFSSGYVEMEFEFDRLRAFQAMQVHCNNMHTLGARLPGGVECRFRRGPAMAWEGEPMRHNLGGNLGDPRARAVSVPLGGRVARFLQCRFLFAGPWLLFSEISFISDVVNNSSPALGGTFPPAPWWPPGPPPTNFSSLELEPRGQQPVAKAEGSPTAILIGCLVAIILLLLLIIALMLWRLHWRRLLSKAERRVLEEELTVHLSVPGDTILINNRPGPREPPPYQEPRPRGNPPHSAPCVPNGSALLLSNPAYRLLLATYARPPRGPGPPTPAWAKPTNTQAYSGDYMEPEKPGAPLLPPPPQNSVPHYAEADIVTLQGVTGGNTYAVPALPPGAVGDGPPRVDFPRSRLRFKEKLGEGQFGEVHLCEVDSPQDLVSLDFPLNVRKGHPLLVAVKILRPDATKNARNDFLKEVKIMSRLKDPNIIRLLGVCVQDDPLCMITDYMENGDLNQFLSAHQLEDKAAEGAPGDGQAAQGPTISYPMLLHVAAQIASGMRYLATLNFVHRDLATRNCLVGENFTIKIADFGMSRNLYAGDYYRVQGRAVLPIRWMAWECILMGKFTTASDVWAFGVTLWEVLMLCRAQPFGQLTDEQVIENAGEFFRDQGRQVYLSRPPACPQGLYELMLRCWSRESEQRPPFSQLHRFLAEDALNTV
Protocol: Human breast ductal carcinoma cell line T47D cells were inoculated in a 6-well plate and incubated overnight at 37° C. and 5% CO2. After the cells are prepared, 2 μL of Compound C1 (DMSO solution of gradient concentrations) was added to a cell plate which was incubated at 37° C. and 5% CO2 for 24 hours. Rat tail collagen (capable of stimulating DDR1 phosphorylation) was added to the cell plate followed by incubation for 2 hours at 37° C. and 5% CO2. Harvest of cell lysates: culture medium was aspirated as much as possible at the end of the culture until the wells were almost dry. 200 μL of ice-cold lysis buffer was added. Lysate was collected into a 1.5 mL eppendorf tube through scraping. Brief vortex was followed by spin at 12000 rpm for 15 minutes in a refrigerated centrifuge. 5× protein electrophoresis loading buffer was added and then the sample was boiled. The sample supernatant was added to a SDS-PAGE gel, followed by electrophoresis, electrotransfer, blocking, primary antibody (anti-phospho-DDR1 antibody and anti-GAPDH antibody) incubation, washing, secondary antibody incubation, washing, and fluorescence development.

## Cc1ccc(C(=O)Nc2ccccn2)cc1C#Cc1cnc2cc(C3=CCCCC3)cnn12 [Compound C1, 3-{2-[7-(cyclohex-1-en-1-yl)imidazo[1,2-b]pyridazin-3-yl]ethynyl}-4-methyl-N-(pyridin-2-yl)benzamide]
[1]
  Inhibition of DDR1-mediated lung fibrosis at the cellular level (in words): can inhibit DDR1-mediated lung fibrosis at the cellular level
[1]; Homo sapiens, MRC5, hTGFβ1 2.5 ng/ml, compound C1 2.44 nM
  inhibition at 0.00244 µM: 103%
[1]; Homo sapiens, MRC5, hTGFβ1 2.5 ng/ml, compound C1 9.77 nM
  inhibition at 0.00977 µM: 103%
[1]; Homo sapiens, MRC5, hTGFβ1 2.5 ng/ml, compound C1 39.06 nM
  inhibition at 0.03906 µM: 103%
[1]; Homo sapiens, MRC5, hTGFβ1 2.5 ng/ml, compound C1 156.25 nM
  inhibition at 0.15625 µM: 109%
[1]; Homo sapiens, MRC5, hTGFβ1 2.5 ng/ml, compound C1 625.00 nM
  inhibition at 0.625 µM: 48.2%
[1]; Homo sapiens, MRC5, hTGFβ1 2.5 ng/ml, compound C1 2500.00 nM
  inhibition at 2.5 µM: 11.7%
[1]; compound C1 2.44 nM
  Ratio of α-SMA to GAPDH: 1.1612
  α-SMA signal: 1390356
[1]; compound C1 9.77 nM
  Ratio of α-SMA to GAPDH: 1.1646
  α-SMA signal: 1386165
[1]; compound C1 39.06 nM
  Ratio of α-SMA to GAPDH: 1.1681
  α-SMA signal: 1304919
[1]; compound C1 156.25 nM
  Ratio of α-SMA to GAPDH: 1.2342
  α-SMA signal: 1353660
[1]; compound C1 625.00 nM
  Ratio of α-SMA to GAPDH: 0.5459
  α-SMA signal: 629772
[1]; compound C1 2500.00 nM
  Ratio of α-SMA to GAPDH: 0.1330
  α-SMA signal: 4686
DDR1
  IC50: 23 nM
[2]
  Inhibition of the phosphorylation of DDR1 at the cellular level (in words): can inhibit the phosphorylation of DDR1 at the cellular level
[2]; compound C1 1.5 nM
  Ratio of p-DDR1 to GAPDH: 0.3282
  inhibition at 0.0015 µM: 51.5%
  p-DDR1 signal: 490770
[2]; compound C1 4.6 nM
  Ratio of p-DDR1 to GAPDH: 0.2221
  inhibition at 0.0046 µM: 67.7%
  p-DDR1 signal: 350490
[2]; compound C1 13.7 nM
  Ratio of p-DDR1 to GAPDH: 0.3020
  inhibition at 0.0137 µM: 55.5%
  p-DDR1 signal: 417870
[2]; compound C1 41.1 nM
  Ratio of p-DDR1 to GAPDH: 0.4145
  inhibition at 0.0411 µM: 38.4%
  p-DDR1 signal: 583470
[2]; compound C1 123 nM
  Ratio of p-DDR1 to GAPDH: 0.2107
  inhibition at 0.123 µM: 69.4%
  p-DDR1 signal: 313140
[2]; compound C1 370 nM
  Ratio of p-DDR1 to GAPDH: 0.1244
  inhibition at 0.37 µM: 82.5%
  p-DDR1 signal: 164340
[2]; compound C1 1111 nM
  Ratio of p-DDR1 to GAPDH: 0.0363
  inhibition at 1.111 µM: 95.9%
  p-DDR1 signal: 51870
[2]; compound C1 3333 nM
  Ratio of p-DDR1 to GAPDH: 0.0183
  inhibition at 3.333 µM: 98.7%
  p-DDR1 signal: 27360
[2]; compound C1 10000 nM
  Ratio of p-DDR1 to GAPDH: 0.0094
  inhibition at 10 µM: 100%
  p-DDR1 signal: 14730
